Measured values: patent publication US9556180B2, “Pyrazolo[3,4-d]pyrimidinone compounds as inhibitors of the P53/MDM2 interaction” (Novartis AG, priority 2013, dated 2017)
pIC50: −log10 of the molar value.

How the values were obtained:
[1] = target: T1, p53-MDM2 interaction (human MDM2 protein, amino acids 2-188) (Homo sapiens, UniProt Q00987); experiment: p53-MDM2 Assay 1: TR-FRET inhibition of p53-MDM2 interaction; type: binding; details: 1.25 nM MDM2-biotinylated, 10 nM Cy5-p53 peptide
T1 construct: human MDM2 protein (amino acids 2-188); made in house
T1 sequence (Q00987 2-188): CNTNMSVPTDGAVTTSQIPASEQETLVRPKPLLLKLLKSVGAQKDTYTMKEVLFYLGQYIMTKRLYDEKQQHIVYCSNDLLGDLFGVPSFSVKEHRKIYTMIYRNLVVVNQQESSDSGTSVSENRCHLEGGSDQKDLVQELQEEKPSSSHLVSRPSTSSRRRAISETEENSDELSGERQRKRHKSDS
Method: (§1) Time Resolved Fluorescence Energy Transfer (TR-FRET) Assay
(§2) The inhibition of p53-MDM2 and p53-MDM4 interactions is measured by time resolved fluorescence energy transfer (TR-FRET). Fluorescence energy transfer (or Foerster resonance energy transfer) describes an energy transfer between donor and acceptor fluorescent molecules. For this assay, human MDM2 protein (amino acids 2-188) and human MDM4 protein (amino acids 2-185), tagged with a C-terminal biotin moiety, are used in combination with a Europium labeled streptavidin (Perkin Elmer, Inc., Waltham, Mass., USA) serving as the donor fluorophore. The p53 derived, Cy5 labeled peptide Cy5-TFSDLWKLL (p53 aa18-26) is the energy acceptor. Upon excitation of the donor molecule at 340 nm, binding interaction between MDM2 or MDM4 and the p53 peptide induces energy transfer and enhanced response at the acceptor emission wavelength at 665 nm. Disruption of the formation of the p53-MDM2 or p53-MDM4 complex due to an inhibitor molecule binding to the p53 binding site of MDM2 or MDM4 results in increased donor emission at 620 nm. The ratiometric FRET assay readout is calculated from the raw data of the two distinct fluorescence signals measured in time resolved mode (fluorescence 665 nm/fluorescence 620 nm×1000).
(§3) After addition of 1.25 nM MDM2-biotinylated or 2.5 nM MDM4-biotinylated (internal preparations, both MDM2 and MDM4 are biotinylated at the C-terminal of the peptide construct), and 0.625 nM Europium labeled streptavidin (Perkin Elmer), the solution is pre-incubated for 15 minutes at room temperature, then 10 nM Cy5-p53 peptide (internal preparation, the Cy5 dye is directly bound to the N-terminal part of p53 peptide construct) is added before an incubation at room temperature for 15 minutes prior to reading the plate. For measurement of samples, a Victor II microplate reader (Perkin Elmer) is used with the following settings: Excitation 340 nm, Emission Donor 620 nm and Emission Acceptor 665 nm. IC50 values are calculated by curve fitting using XLfit. If not specified, reagents are purchased from Sigma-Aldrich Chemie GmBH, Buchs, Switzerland.
(§4) This assay was used to evaluate compounds displaying inhibition of p53-MDM2 interaction and p53-MDM4 interaction at IC50s of 0.005 to 50 μM (p53-MDM2 Assay 1 and p53-MDM4 Assay 1, respectively). For selected compounds displaying IC50s between […] on MDM2, a slightly modified assay is used with the following adaptations: 0.1 nM MDM2, 0.1 nM Europium labeled streptavidin and Tecan genios Pro is used as a microplate reader for the fluorescence measurements (p53-MDM2 Assay 2).

[2] = target: T2, p53-MDM4 interaction (human MDM4 protein, amino acids 2-185) (Homo sapiens, UniProt O15151); experiment: p53-MDM4 Assay 1: TR-FRET inhibition of p53-MDM4 interaction; type: binding; details: 2.5 nM MDM4-biotinylated, 10 nM Cy5-p53 peptide
T2 construct: human MDM4 protein (amino acids 2-185); made in house
T2 sequence (O15151 2-185): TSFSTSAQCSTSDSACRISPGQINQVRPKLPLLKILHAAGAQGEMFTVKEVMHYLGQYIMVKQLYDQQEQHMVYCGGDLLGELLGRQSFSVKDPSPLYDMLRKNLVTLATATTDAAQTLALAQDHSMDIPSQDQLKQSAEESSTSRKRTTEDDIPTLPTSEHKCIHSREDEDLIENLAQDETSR
Method: as §1, §2, §3, §4

SMILES | pIC50 [1] | pIC50 [2] | melting point
CC(C)=CCn1nc2c(c1C(C)C)C(c1ccc(Cl)cc1C)N(c1cccc(Cl)c1F)C(=O)N2 (centres unmarked) [Example 4, 5-(3-chloro-2-fluorophenyl)-4-(4-chloro-2-methylphenyl) -3-isopropyl-2-(3-methylbut-2-en-1-yl)-4,5-dihydro-2H-pyrazolo[3,4-d]pyrimidin-6(7H)-one] | 8.46 | 4.10 | 81 to 83 °C
COc1ccccc1-n1nc2c(c1C(C)C)C(c1ccc(Cl)cc1C)N(c1cccc(Cl)c1F)C(=O)N2 (centres unmarked) [Example 5, 5-(3-Chloro-2-fluoro-phenyl)-4-(4-chloro-2-methyl-phenyl)-3-isopropyl-2-(2-methoxy-phenyl)-2,4,5,7-tetrahydro-pyrazolo[3,4-d]pyrimidin-6-one] | 8.84 | 5.77 | 140 to 143 °C
Cc1cc(Cl)ccc1C1c2c(nn(Cc3ccccn3)c2C(C)C)NC(=O)N1c1cccc(Cl)c1F (centres unmarked) [Example 8, 5-(3-Chloro-2-fluoro-phenyl)-4-(4-chloro-2-methyl-phenyl)-3-isopropyl-2-pyridin-2-ylmethyl-2,4,5,7-tetrahydro-pyrazolo[3,4-d]pyrimidin-6-one] | 8.49 | 5.09 | 150 to 153 °C
Cc1cc(Cl)ccc1C1c2c(nn(Cc3ccccc3)c2C(C)C)NC(=O)N1c1cc(Cl)ccc1C (centres unmarked) [Example 11, 2-Benzyl-4-(4-chloro-2-methyl-phenyl)-5-(5-chloro-2-methyl-phenyl)-3-isopropyl-2,4,5,7-tetrahydro-pyrazolo[3,4-d]pyrimidin-6-one] | 8.46 | – | 105 to 107 °C
